Entries after “also recorded” stand apart in the source; their conditions may differ.
Assays:
Format in all cases: in vivo
[1] = system: transplanted rice; experiment: Seed treatment in transplanted rice: germination and crop safety (Example 5)
[2] = system: corn seeds; experiment: Plant vigour visual rating of corn from treated seeds (Example 3); design: Average Plant Vigor visual rating: scale not given here
Method: In this experiment the effect was tested on corn seeds. Treated and untreated seeds were sown to see the impact of flonicamid on the plant vigour. A line sowing method was used to sow the seeds.

[3] = system: Thrips; experiment: Efficacy of seed treatment on thrips in direct sown rice (Example 4)
[4] = system: rice (DSR); experiment: Seed treatment in rice (DSR): plant height, PGE rating, tillers (Example 4)
[5] = system: corn seeds; experiment: Germination of flonicamid-treated corn seeds, line sowing (Example 2); settings: for Average germination %: corn seed
Method: In this experiment the effect of flonicamid was tested on corn seeds. Treated and untreated seeds were sown to see the impact of flonicamid on the plant germination. Treatments are performed using FS formulation of example 1. A line sowing method was used to sow the seeds.

[6] = system: rice (DSR); experiment: Seed treatment in rice (DSR): rice grain yield (Example 4)
[7] = system: corn seeds; experiment: Phytotoxicity after seed treatment, corn; settings: treatment of seeds
[8] = system: Thrips; experiment: Efficacy of seed treatment on thrips in transplanted rice (Example 5)
[9] = system: transplanted rice; experiment: Seed treatment in transplanted rice: plant height, PGE rating, tillers (Example 5)
[10] = system: rice (DSR); experiment: Seed treatment in rice (DSR): germination and crop safety (Example 4)

N#CCNC(=O)c1cnccc1C(F)(F)F [Flonicamid, N-cyanomethyl-4-trifluoromethylnicotinamide]
% Germination ([1]; 5 ml/kg Seed): 86%
No. of germinated seed/sq · m ([1]; 5 ml/kg Seed, 5DAS): 98 seed/sq · m
No. of germinated seed/sq · m ([1]; 5 ml/kg Seed, 10DAS): 102 seed/sq · m
No. of germinated seed/sq · m ([1]; 5 ml/kg Seed, 15DAS): 108 seed/sq · m
% Germination ([1]; 10 ml/kg Seed): 98%
No. of germinated seed/sq · m ([1]; 10 ml/kg Seed, 5DAS): 110 seed/sq · m
No. of germinated seed/sq · m ([1]; 10 ml/kg Seed, 10DAS): 120 seed/sq · m
No. of germinated seed/sq · m ([1]; 10 ml/kg Seed, 15DAS): 128 seed/sq · m
Average Plant Vigor visual rating ([2]; 5 g/ml/kg Seed, 10DAS): 2
Average Plant Vigor visual rating ([2]; 5 g/ml/kg Seed, 20DAS): 1
Average Plant Vigor visual rating ([2]; 5 g/ml/kg Seed, 30DAS): 1
Average Plant Vigor visual rating ([2]; 5 g/ml/kg Seed, 40DAS): 1
Average Plant Vigor visual rating ([2]; 10 g/ml/kg Seed, 10DAS): 2
Average Plant Vigor visual rating ([2]; 10 g/ml/kg Seed, 20DAS): 1
Average Plant Vigor visual rating ([2]; 10 g/ml/kg Seed, 30DAS): 1
Average Plant Vigor visual rating ([2]; 10 g/ml/kg Seed, 40DAS): 1
growth versus untreated control (in words) ([2]; 30 days after sowing): Excellent growth
No. of Thrips/Seedling ([3]; 5 ml/kg Seed, 15DAS): 4.5 Thrips/Seedling
No. of Thrips/Seedling ([3]; 5 ml/kg Seed, 20DAS): 8.3 Thrips/Seedling
No. of Thrips/Seedling ([3]; 5 ml/kg Seed, 25DAS): 12.3 Thrips/Seedling
No. of Thrips/Seedling ([3]; 10 ml/kg Seed, 15DAS): 1.3 Thrips/Seedling
No. of Thrips/Seedling ([3]; 10 ml/kg Seed, 20DAS): 4.8 Thrips/Seedling
No. of Thrips/Seedling ([3]; 10 ml/kg Seed, 25DAS): 7.2 Thrips/Seedling
control of thrips (in words) ([3]; seed treatment vs untreated): better control of thrips
PGE rating ([4]; 5 ml/kg Seed, 15 DAS): 2
Plant hight (cm) ([4]; 5 ml/kg Seed, 15 DAS): 12.83 cm
Plant hight (cm) ([4]; 5 ml/kg Seed, 20 DAS): 22.45 cm
PGE rating ([4]; 5 ml/kg Seed, 30 DAS): 2
No. of tiller/hill ([4]; 5 ml/kg Seed, 45 DAS): 13.5 tiller/hill
PGE rating ([4]; 5 ml/kg Seed, 45 DAS): 3
No. of tiller/hill ([4]; 5 ml/kg Seed, 60 DAS): 15.3 tiller/hill
PGE rating ([4]; 10 ml/kg Seed, 15 DAS): 1
Plant hight (cm) ([4]; 10 ml/kg Seed, 15 DAS): 15.33 cm
Plant hight (cm) ([4]; 10 ml/kg Seed, 20 DAS): 26.66 cm
PGE rating ([4]; 10 ml/kg Seed, 30 DAS): 1
No. of tiller/hill ([4]; 10 ml/kg Seed, 45 DAS): 17.2 tiller/hill
PGE rating ([4]; 10 ml/kg Seed, 45 DAS): 2
No. of tiller/hill ([4]; 10 ml/kg Seed, 60 DAS): 19.7 tiller/hill
crop vigour parameter (in words) ([4]; seed treatment vs untreated): improvement in crop vigour parameter
Average germination % ([5]; 5 g/ml/kg Seed, 5DAS): 77.5%
Average germination % ([5]; 5 g/ml/kg Seed, 10DAS): 97.5%
Average germination % ([5]; 5 g/ml/kg Seed, 15DAS): 97.5%
Average germination % ([5]; 10 g/ml/kg Seed, 5DAS): 82.5%
Average germination % ([5]; 10 g/ml/kg Seed, 10DAS): 98%
Average germination % ([5]; 10 g/ml/kg Seed, 15DAS): 98%
germination of tested corn seeds (in words) ([5]; corn, seed treatment vs untreated): significant improvement in germination; also recorded: Enhanced germination %
Rice grain yield t/ha ([6]; 5 ml/kg Seed): 4.53 t/ha
Rice grain yield t/ha ([6]; 10 ml/kg Seed): 4.85 t/ha
phytotoxicity [7]: no phytotoxicity was observed
No. of Thrips/Seedling ([8]; 5 ml/kg Seed, 15DAS): 2.5 Thrips /Seedling
No. of Thrips/Seedling ([8]; 5 ml/kg Seed, 20DAS): 7.2 Thrips /Seedling
No. of Thrips/Seedling ([8]; 5 ml/kg Seed, 25DAS): 11.5 Thrips /Seedling
No. of Thrips/Seedling ([8]; 10 ml/kg Seed, 15DAS): 1.2 Thrips /Seedling
No. of Thrips/Seedling ([8]; 10 ml/kg Seed, 20DAS): 5.6 Thrips /Seedling
No. of Thrips/Seedling ([8]; 10 ml/kg Seed, 25DAS): 9.3 Thrips /Seedling
Plant height (cm) ([9]; 5 ml/kg Seed, 15DAS): 51.5 cm
Plant height (cm) ([9]; 5 ml/kg Seed, 20DAS): 72.8 cm
PGE rating ([9]; 5 ml/kg Seed, 30 DAS): 2
No. of tiller/hill ([9]; 5 ml/kg Seed, 45DAS): 20.8 tiller/hill
PGE rating ([9]; 5 ml/kg Seed, 45DAS): 2
No. of tiller/hill ([9]; 5 ml/kg Seed, 60DAS): 22.6 tiller/hill
Plant height (cm) ([9]; 10 ml/kg Seed, 15DAS): 58.4 cm
Plant height (cm) ([9]; 10 ml/kg Seed, 20DAS): 78.5 cm
PGE rating ([9]; 10 ml/kg Seed, 30 DAS): 1
No. of tiller/hill ([9]; 10 ml/kg Seed, 45DAS): 25.6 tiller/hill
PGE rating ([9]; 10 ml/kg Seed, 45DAS): 1
No. of tiller/hill ([9]; 10 ml/kg Seed, 60DAS): 28.5 tiller/hill
% Germination ([10]; 5 ml/kg Seed): 90%
No. of germinated seed/sq · m ([10]; 5 ml/kg Seed, 5DAS): 65.3 seed/sq · m
No. of germinated seed/sq · m ([10]; 5 ml/kg Seed, 10DAS): 69.6 seed/sq · m
No. of germinated seed/sq · m ([10]; 5 ml/kg Seed, 15 DAS): 70.6 seed/sq · m
% Germination ([10]; 10 ml/kg Seed): 98%
No. of germinated seed/sq · m ([10]; 10 ml/kg Seed, 5DAS): 70.6 seed/sq · m
No. of germinated seed/sq · m ([10]; 10 ml/kg Seed, 10DAS): 73.3 seed/sq · m
No. of germinated seed/sq · m ([10]; 10 ml/kg Seed, 15 DAS): 78.6 seed/sq · m
plant growth/germination (in words) ([10]; seed treatment vs untreated): enhanced plant growth/germination
